Measurements from patent US9604987B2, “Synthesis of autophagy inducing compound and the uses thereof” (Hong Kong Baptist University, priority 2012, dated 2017).

Experiments:
[1] = tested on: N2a cells; experiment: Western blot of autophagy marker LC3-II in N2a cells; type: cell-based, mouse; conditions: for pro-autophagic activity (LC3II protein signal): various concentrations, 12 hrs
Protocol: Native and denatured PAGE and Western blotting analysis. Samples to be run under denaturing conditions were lysed with RIPA lysis buffer (150 mM NaCl, 50 mM Tris-HCl, 0.35% sodium deoxycholate, 1 mM EDTA, 1% NP40, 1 mM PMSF, 5 μg/ml aprotinin, 5 μg/ml leupeptin). Samples for native gels were lysed with detergent-free lysis buffer (50 mM Tris/HCl pH 7.4, 175 mM NaCl, 5 mM EDTA pH 8.0, 1 mM PMSF, 5 μg/ml aprotinin, 5 μg/ml leupeptin), and sheared 5 times through a 28-gauge needle followed by 2 times of sonication for 5 seconds according to previously described protocol. For denaturing, SDS-PAGE was performed using Tris-Glycine SDS running buffer and SDS sample buffer, and for native conditions, native-PAGE was run with detergent-free Tris-Glycine running buffer (BN2007, Invitrogen) and 4× native sample buffer (BN2003, Invitrogen) on a pre-casted native PAGE gel (BN1002BOX, Invitrogen). The proteins on the gels were then transferred to PVDF membrane (RPN303F, GE Healthcare) and processed for immunoblotting. Membranes were blocked with 5% non-fat milk and probed with the appropriate primary and secondary antibodies. The desired bands were visualized using the ECL kit (32106, Pierce). The band density was quantified using the ImageJ program and normalized to that of the control group.
In order to confirm the neuronal autophagy inducing activity of Cory B (its chemical structure is shown in FIG. 1A), mouse neuroblastoma N2a, rat phenochromocytoma PC12 and human neurobastoma SH-SY5Y are treated with different concentrations of Cory B for 24 hours and cell lysates are subjected to western blotting analysis of LC3-II expression which is an autophagy-specific marker.
To confirm that enhancement of autophagy markers by Cory B is due to induction of autophagy rather than blockage of autophagosome maturation, N2a cells are treated with 25 μM Cory B or 30 μM lysosome inhibitor CQ together with Cory B for 12 hours. Cell lysates are subject to western blot analysis. Data are presented as the mean±SEM from 3 independent experiments (***p<0.001, one-way ANOVA for multiple comparison and Tukey's test as post hoc test). Both LC3-II levels and the number of GFP-LC3 puncta in the Cory B and CQ co-treatment group are much higher than in the CQ-alone treatment group (FIG. 2A-D). Meanwhile, Cory B induces GFP-LC3 puncta formation is abolished by treatment of 5 mM autophagy inhibitor 3-MA for 24 hours (FIG. 2C, D). Cells were fixed in 4% paraformaldehyde and analyzed under a confocal microscope. Data are presented as the mean±SEM of one representative experiment from three independent experiments. (***p<0.001, one-way ANOVA for multiple comparison and Tukey's test as post hoc test). […] Thus, Cory B is indeed an autophagy inducer in neuronal cells.
To compare the activities of oxindole alkaloids on autophagy induction, LC3II expression levels in N2a cells after treatment with Corynoxine B (Cory B) (FIG. 8A), Corynoxine (Cory) (FIG. 8B), Rhynchophylline (Rhy) (FIG. 8C) and Isorhynchophylline (IsoRhy) for 12 hours are examined.
In order to examine the pro-autophagic activities of the synthesized Cory B analogues, neuroblastoma 2a, a neuronal cell line, are treated with various concentrations of the analogues for 12 hrs. The cells are then harvested and lysed with RIPA buffer (150 mM NaCl, 50 mM Tris-HCl pH 7.4, 0.35% sodium deoxycholate, 1 mM EDTA, 1% NP40, 1 mM PMSF, 5 μg/ml aprotinin, 5 μg/ml leupeptin). The sample are lysed on ice with occasional vortex for 30 min, and then centrifuged at 14,000 rpm for 15 min at 4° C. The supernatant are collected and denatured at 95° C. in sample buffer for 5 min. The denatured samples are then separated on 15% SDS-PAGE gels and transferred to PVDF membrane. Membranes are then blocked with 5% non-fat milk and probed with appropriate primary and secondary antibodies. The protein signals of LC3II, marker protein of autophagy, are finally visualized with ECL kit and the protein bands density are quantified by ImageJ program. […]

[2] = tested on: Drosophila fat body; experiment: Atg8a-EGFP puncta in Drosophila fat body (confocal); type: in vivo; conditions: L3 larvae, 100 μM, 6 hours
Protocol: To further test whether CB6 and CB8 could induce autophagy in vivo, Drosolphila expressing Atg8a-GFP (Atg8a, Drosophila homologue of LC3) are obtained by crossing Cg-GAL4, a GAL4 line drives transgene expression in fat body, with UAS-Atg8a-EGFP. Crossed flies are allowed to lay eggs for 1 hour, 90 hours later, the L3 larvae are collected and treated with 100 μM of Cory B, CB6 and CB8 for 6 hours respectively. After treatment, the fat body lobes of the larvae are harvested with fine forceps and fixed with 4% PFA in PBS at room temperature for 15 minutes. Fat body lobes are then washed with PBS three times and subsequently mounted with VECTASHIELD hardset anti-fade mounting medium. The slides are then subjected to confocal microscopy analysis.
Crossed flies were allowed to lay eggs for 1 hr, 90 hrs later, the L3 larvae were collected for further treatment. The compounds were firstly dissolved in DMSO and then diluted to the desired concentration with ddH2O and then mixed thoroughly with instant fly food. The L3 larvae were placed in the prepared food and received treatment for 6 hrs. After treatment, the fat body lobes of the larvae were harvested with fine forceps and fixed with 4% PFA in PBS at room temperature for 15 min. Fat body lobes were then washed with PBS three times and subsequently mounted with VECTASHIELD hardset antifade mounting medium. […]

Compound | pro-autophagic activity (LC3II protein signal) ([1]; N2a) | autophagy in vivo (Atg8a-EGFP puncta) [2] | LC3-II levels and number of GFP-LC3 puncta, co-treatment with CQ versus CQ alone ([1]; 25 μM Cory B + 30 μM CQ, 12 hours) | LC3-II levels ([1]; N2a, 0-25 μM, 24 hours) | autophagy induction (LC3II expression level) ([1]; N2a, oxindole alkaloids, 12 hours)
CCCN1C(=O)[C@]2(CCN3C[C@@H](CC)[C@@H](/C(=C\OC)C(=O)OC)C[C@H]32)c2ccccc21 [CB6] | novel autophagy inducer | able to induce autophagy | – | – | –
CC[C@@H]1CN2CC[C@]3(C(=O)Nc4ccccc43)C2C[C@@H]1C(=COC)C(=O)OC (stereo partly shown) [Cory B, Corynoxine B] | – | – | much higher | increases levels of LC3-II | significantly activate autophagy
C=CCN1C(=O)[C@]2(CCN3C[C@@H](CC)[C@@H](/C(=C\OC)C(=O)OC)C[C@H]32)c2ccccc21 [CB8] | novel autophagy inducer | able to induce autophagy | – | – | –
